Our source for the inhibition values is ChEMBL document CHEMBL4052759, “Discovery of DS79182026: A potent orally active hepcidin production inhibitor” (Bioorg Med Chem Lett, 2017).

For assay [1], the target named is Serine/threonine-protein kinase pim-2 (Homo sapiens) (UniProt Q9P1W9). Nature of the assay: Inhibition of PIM2 (unknown origin) at 0.49 uM relative to control.
The target in assay [2] is Vascular endothelial growth factor receptor 1 (Homo sapiens) (UniProt P17948). The experiment in a line: Inhibition of FLT1 (unknown origin) at 0.49 uM relative to control.
In assay [3] the target is Epidermal growth factor receptor (Homo sapiens) (UniProt P00533). The experiment in a line: Inhibition of EGFR (unknown origin) at 0.49 uM relative to control.
Assay [4] has as its system Fibroblast growth factor receptor 4 (Homo sapiens), P22455 [V550L]. Nature of the assay: Inhibition of FGFR4 V550L mutant (unknown origin) at 0.49 uM relative to control.
In assay [5] the target is MAP kinase-interacting serine/threonine-protein kinase 1 (Homo sapiens) (UniProt Q9BUB5). Nature of the assay: Inhibition of MNK1 (unknown origin) at 0.49 uM relative to control.
In assay [6] the target is Cyclin-dependent kinase 2 (Homo sapiens) (UniProt P24941). Nature of the assay: Inhibition of CDK2 (unknown origin) at 0.49 uM relative to control.
The target of assay [7] is Serine/threonine-protein kinase PAK 2 (Homo sapiens) (UniProt Q13177). The experiment in a line: Inhibition of PAK2 (unknown origin) at 0.49 uM relative to control.
For assay [8], the target named is Serine/threonine-protein kinase MARK1 (Homo sapiens) (UniProt Q9P0L2). Nature of the assay: Inhibition of MARK1 (unknown origin) at 0.49 uM relative to control.
Assay [9] addresses Tyrosine-protein kinase Tec (Homo sapiens) (UniProt P42680). The experiment in a line: Inhibition of TEC (unknown origin) at 0.49 uM relative to control.
Assay [10] addresses STE20-like serine/threonine-protein kinase (Homo sapiens) (UniProt Q9H2G2). Nature of the assay: Inhibition of SLK (unknown origin) at 0.49 uM relative to control.
Assay [11] deals with Ephrin type-A receptor 4 (Homo sapiens) (UniProt P54764). The experiment in a line: Inhibition of EPHA4 (unknown origin) at 0.49 uM relative to control.
The target in assay [12] is Macrophage-stimulating protein receptor (Homo sapiens) (UniProt Q04912). Nature of the assay: Inhibition of MST1R (unknown origin) at 0.49 uM relative to control.
For assay [13], the target named is Tyrosine-protein kinase Lyn (Homo sapiens) (UniProt P07948). Nature of the assay: Inhibition of LYN (unknown origin) at 0.49 uM relative to control.
Assay [14] concerns the target Platelet-derived growth factor receptor alpha (Homo sapiens) (UniProt P16234). The experiment in a line: Inhibition of PDGFR alpha (unknown origin) at 0.49 uM relative to control.
The target in assay [15] is Serine/threonine-protein kinase DCLK2 (Homo sapiens) (UniProt Q8N568). Nature of the assay: Inhibition of DCAMKL2 (unknown origin) at 0.49 uM relative to control.
Assay [16] addresses Cyclin-dependent kinase 1/cyclin B1 (Homo sapiens) (UniProt P06493+P14635). Nature of the assay: Inhibition of CDK1/Cycline B1 (unknown origin) at 0.45 uM relative to control. It is filed as protein-complex assay.
The target in assay [17] is Serine/threonine-protein kinase 24 (Homo sapiens) (UniProt Q9Y6E0). Nature of the assay: Inhibition of MST3 (unknown origin) at 0.45 uM relative to control.
The target of assay [18] is CDK4/Cyclin D3 (Homo sapiens) (UniProt P11802+P30281). Nature of the assay: Inhibition of CDK4/CyclinD3 (unknown origin) at 0.45 uM relative to control. Type of assay: protein-complex assay.
For assay [19], the target named is Protein kinase C gamma type (Homo sapiens) (UniProt P05129). Nature of the assay: Inhibition of PKC-gamma (unknown origin) at 0.45 uM relative to control.
The target of assay [20] is Insulin receptor (Homo sapiens) (UniProt P06213). The experiment in a line: Inhibition of INSR (unknown origin) at 0.45 uM relative to control.
The target of assay [21] is Casein kinase I isoform gamma-1 (Homo sapiens) (UniProt Q9HCP0). Nature of the assay: Inhibition of CK1-gamma1 (unknown origin) at 0.45 uM relative to control.
For assay [22], the target named is Dual specificity tyrosine-phosphorylation-regulated kinase 1A (Homo sapiens) (UniProt Q13627). The experiment in a line: Inhibition of DYRK1a (unknown origin) at 0.45 uM relative to control.
The target in assay [23] is Calcium/calmodulin-dependent protein kinase type II subunit alpha (Homo sapiens) (UniProt Q9UQM7). The experiment in a line: Inhibition of CaMK2a (unknown origin) at 0.45 uM relative to control.
Assay [24] concerns the target Glycogen synthase kinase-3 alpha (Homo sapiens) (UniProt P49840). The experiment in a line: Inhibition of GSK3-alpha (unknown origin) at 0.45 uM relative to control.
The target of assay [25] is Aurora kinase C (Homo sapiens) (UniProt Q9UQB9). Nature of the assay: Inhibition of AurC (unknown origin) at 0.45 uM relative to control.
The target in assay [26] is Serine/threonine-protein kinase MARK1 (Homo sapiens) (UniProt Q9P0L2). The experiment in a line: Inhibition of MARK1 (unknown origin) at 0.078 uM relative to control.
Assay [27] concerns the target Insulin receptor (Homo sapiens) (UniProt P06213). The experiment in a line: Inhibition of INSR (unknown origin) at 0.078 uM relative to control.
Assay [28] has as its target Hepatocyte growth factor receptor (Homo sapiens) (UniProt P08581). The experiment in a line: Inhibition of MET (unknown origin) at 0.078 uM relative to control.
For assay [29], the target named is T1, Serine/threonine-protein kinase D2 (Homo sapiens) (UniProt Q9BZL6).
T1 sequence (whole entry): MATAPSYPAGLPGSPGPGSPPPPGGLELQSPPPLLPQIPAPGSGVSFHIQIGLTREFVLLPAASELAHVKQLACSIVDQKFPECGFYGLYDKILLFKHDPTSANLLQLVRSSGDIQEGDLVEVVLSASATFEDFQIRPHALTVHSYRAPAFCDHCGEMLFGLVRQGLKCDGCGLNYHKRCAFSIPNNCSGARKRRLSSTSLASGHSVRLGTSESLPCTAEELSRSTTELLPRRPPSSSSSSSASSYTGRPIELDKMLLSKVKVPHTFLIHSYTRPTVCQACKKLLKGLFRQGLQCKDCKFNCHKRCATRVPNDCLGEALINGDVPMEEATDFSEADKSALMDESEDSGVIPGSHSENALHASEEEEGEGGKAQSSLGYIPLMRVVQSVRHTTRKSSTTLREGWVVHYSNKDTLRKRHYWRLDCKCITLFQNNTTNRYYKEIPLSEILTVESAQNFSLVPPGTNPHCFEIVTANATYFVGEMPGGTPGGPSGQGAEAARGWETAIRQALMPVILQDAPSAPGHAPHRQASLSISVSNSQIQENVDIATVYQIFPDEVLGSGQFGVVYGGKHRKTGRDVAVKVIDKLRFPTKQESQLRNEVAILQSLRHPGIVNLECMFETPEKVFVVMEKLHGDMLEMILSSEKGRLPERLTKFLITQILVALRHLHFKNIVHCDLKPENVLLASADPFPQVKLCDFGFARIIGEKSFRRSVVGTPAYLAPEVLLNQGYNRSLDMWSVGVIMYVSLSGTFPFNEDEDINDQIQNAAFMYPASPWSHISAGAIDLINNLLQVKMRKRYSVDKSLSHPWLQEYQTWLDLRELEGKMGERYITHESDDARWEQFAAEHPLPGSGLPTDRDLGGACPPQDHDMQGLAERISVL
Nature of the assay: Inhibition of PKD2 (unknown origin) at 0.078 uM relative to control.

SMILES strings stand for the structures.

Sequence of Insulin receptor (Homo sapiens) (P06213 28-758 limits assumed): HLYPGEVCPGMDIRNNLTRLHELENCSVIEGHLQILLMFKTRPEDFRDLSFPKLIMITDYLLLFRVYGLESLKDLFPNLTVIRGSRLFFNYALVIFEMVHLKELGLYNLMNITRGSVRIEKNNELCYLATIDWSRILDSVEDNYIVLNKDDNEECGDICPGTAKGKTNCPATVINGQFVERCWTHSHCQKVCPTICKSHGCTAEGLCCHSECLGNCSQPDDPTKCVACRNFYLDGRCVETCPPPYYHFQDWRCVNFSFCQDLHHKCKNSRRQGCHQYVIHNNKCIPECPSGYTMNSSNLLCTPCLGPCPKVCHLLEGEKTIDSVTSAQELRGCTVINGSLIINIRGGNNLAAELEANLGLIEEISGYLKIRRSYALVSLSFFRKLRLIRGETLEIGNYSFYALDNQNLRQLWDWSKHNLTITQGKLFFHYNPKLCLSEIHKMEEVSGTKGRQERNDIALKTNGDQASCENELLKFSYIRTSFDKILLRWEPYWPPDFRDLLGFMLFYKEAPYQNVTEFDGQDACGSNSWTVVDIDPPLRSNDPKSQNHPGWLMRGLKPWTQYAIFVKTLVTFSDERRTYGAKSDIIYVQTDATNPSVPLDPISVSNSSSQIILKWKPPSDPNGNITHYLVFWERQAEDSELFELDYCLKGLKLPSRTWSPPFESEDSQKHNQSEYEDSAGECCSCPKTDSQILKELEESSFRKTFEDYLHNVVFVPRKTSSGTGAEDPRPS
Sequence of Insulin receptor (Homo sapiens) (P06213 763-1382 limits assumed): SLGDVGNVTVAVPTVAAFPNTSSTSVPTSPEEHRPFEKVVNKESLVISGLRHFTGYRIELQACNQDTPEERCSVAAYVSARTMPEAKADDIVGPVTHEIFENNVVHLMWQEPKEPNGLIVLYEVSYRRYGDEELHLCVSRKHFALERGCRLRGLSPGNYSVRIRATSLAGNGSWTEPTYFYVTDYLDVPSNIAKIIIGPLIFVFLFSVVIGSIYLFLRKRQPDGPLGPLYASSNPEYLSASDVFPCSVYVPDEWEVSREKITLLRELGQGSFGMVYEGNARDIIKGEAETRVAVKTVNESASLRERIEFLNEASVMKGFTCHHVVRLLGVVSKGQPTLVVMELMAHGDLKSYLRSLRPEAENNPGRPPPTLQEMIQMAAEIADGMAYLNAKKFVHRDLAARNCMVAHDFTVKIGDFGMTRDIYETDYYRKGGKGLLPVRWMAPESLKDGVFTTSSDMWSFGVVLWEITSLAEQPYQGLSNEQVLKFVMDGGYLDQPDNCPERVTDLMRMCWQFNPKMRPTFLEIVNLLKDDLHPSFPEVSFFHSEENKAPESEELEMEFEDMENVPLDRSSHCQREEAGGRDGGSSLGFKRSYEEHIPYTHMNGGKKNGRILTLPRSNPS
Sequence of Serine/threonine-protein kinase MARK1 (Homo sapiens) (Q9P0L2 whole entry, looked up): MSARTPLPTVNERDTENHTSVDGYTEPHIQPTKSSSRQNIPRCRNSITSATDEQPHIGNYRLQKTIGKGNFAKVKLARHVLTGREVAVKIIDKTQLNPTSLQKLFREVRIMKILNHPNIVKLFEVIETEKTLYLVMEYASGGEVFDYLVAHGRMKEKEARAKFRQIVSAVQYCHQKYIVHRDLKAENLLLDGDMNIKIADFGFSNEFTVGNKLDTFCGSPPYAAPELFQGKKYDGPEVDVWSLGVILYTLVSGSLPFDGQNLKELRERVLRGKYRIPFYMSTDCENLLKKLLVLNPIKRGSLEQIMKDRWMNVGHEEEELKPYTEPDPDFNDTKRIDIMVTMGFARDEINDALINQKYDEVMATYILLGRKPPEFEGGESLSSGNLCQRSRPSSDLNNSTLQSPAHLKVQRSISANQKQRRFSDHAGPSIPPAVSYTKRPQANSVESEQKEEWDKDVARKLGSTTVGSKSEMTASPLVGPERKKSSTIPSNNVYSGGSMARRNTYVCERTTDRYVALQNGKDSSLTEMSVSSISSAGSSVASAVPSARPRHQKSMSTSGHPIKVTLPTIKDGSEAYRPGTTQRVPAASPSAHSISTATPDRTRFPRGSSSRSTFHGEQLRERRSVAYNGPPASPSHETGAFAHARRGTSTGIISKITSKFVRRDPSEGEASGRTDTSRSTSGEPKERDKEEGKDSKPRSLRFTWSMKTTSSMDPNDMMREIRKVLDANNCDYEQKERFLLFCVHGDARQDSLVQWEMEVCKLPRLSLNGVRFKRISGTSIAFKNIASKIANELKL
Sequence of Macrophage-stimulating protein receptor (Homo sapiens) (Q04912 25-304 limits assumed): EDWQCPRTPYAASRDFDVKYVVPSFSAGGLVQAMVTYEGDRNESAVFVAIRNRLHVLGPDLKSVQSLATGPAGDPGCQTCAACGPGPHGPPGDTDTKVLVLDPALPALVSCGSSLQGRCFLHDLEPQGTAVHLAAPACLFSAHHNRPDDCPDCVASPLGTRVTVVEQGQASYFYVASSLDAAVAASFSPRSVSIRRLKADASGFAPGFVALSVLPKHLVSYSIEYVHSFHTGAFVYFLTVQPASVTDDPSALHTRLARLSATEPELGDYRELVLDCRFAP
Sequence of Macrophage-stimulating protein receptor (Homo sapiens) (Q04912 310-1400 limits assumed): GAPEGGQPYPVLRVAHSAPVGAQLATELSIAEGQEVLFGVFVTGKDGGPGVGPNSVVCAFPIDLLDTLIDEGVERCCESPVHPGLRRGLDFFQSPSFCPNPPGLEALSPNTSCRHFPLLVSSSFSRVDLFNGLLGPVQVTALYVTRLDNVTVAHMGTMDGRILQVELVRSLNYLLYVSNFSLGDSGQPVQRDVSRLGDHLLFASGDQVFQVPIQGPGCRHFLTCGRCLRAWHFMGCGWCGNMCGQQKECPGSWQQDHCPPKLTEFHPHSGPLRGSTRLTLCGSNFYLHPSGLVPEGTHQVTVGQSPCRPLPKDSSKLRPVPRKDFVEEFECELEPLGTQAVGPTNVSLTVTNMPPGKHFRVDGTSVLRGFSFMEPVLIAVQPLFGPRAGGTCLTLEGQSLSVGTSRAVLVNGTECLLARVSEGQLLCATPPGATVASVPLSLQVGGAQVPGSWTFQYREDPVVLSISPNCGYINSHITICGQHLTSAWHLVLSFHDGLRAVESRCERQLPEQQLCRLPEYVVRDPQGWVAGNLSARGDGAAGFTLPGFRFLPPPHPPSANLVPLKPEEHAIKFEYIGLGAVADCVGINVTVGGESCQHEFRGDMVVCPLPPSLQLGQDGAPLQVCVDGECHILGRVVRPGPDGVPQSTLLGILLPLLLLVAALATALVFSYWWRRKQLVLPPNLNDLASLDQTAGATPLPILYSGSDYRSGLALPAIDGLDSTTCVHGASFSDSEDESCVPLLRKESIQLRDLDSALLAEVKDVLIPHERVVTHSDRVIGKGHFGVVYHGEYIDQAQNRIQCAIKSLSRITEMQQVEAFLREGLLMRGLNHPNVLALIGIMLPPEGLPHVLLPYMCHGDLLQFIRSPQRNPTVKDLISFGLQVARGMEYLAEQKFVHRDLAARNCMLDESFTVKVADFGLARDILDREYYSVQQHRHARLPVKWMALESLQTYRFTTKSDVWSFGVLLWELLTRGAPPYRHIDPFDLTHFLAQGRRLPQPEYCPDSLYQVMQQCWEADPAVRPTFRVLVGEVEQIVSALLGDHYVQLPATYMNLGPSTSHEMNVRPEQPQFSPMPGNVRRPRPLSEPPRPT
Sequence of Ephrin type-A receptor 4 (Homo sapiens) (P54764 whole entry): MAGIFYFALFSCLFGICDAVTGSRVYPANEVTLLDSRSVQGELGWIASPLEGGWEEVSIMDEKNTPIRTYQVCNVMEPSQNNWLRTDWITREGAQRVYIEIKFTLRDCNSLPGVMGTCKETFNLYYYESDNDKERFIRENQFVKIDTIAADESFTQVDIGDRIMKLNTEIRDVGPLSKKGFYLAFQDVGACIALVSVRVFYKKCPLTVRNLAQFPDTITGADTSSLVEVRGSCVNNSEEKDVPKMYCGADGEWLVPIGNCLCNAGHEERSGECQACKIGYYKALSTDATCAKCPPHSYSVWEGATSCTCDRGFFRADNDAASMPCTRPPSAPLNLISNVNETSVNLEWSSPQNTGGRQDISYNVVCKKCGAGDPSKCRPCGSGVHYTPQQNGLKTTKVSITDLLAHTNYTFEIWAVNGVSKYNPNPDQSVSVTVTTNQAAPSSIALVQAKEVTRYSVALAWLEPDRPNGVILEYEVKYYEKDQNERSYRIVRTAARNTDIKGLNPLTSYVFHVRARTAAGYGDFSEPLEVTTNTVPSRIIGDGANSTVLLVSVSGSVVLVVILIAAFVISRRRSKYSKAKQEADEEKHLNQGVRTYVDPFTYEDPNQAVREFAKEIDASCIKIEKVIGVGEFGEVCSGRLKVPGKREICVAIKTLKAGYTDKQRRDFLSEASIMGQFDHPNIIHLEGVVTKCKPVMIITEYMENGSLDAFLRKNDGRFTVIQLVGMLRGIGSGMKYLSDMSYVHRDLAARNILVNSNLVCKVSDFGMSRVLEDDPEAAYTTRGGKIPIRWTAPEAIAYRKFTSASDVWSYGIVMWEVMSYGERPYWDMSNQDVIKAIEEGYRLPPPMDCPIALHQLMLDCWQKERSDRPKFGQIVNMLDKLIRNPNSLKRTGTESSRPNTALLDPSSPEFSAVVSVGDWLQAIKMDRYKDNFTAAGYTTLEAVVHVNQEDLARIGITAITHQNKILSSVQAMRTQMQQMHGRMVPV
Sequence of Casein kinase I isoform gamma-1 (Homo sapiens) (Q9HCP0 whole entry, looked up, canonical isoform): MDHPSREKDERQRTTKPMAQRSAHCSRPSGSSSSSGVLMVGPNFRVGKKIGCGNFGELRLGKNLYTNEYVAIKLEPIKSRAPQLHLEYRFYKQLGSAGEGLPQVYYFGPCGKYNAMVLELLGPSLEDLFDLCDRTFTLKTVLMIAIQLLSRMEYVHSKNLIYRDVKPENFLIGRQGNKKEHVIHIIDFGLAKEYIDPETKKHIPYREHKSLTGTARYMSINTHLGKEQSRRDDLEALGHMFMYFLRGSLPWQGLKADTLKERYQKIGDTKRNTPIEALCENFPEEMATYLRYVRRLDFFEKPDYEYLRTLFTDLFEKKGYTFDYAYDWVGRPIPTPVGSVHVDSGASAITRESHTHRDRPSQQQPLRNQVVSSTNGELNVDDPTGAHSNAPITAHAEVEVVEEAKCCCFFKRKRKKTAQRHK

In general, inhibition refers to the relative decrease from the control value, in per cent. Consider `Cc1[nH]nc(C2CC2)c1-c1ccc2c(NC(=O)C3CC3)noc2c1`, for which the inhibition in [1] was -6%; in assay [2], -2.3%; in assay [3] it was -7.3%; in assay [4] it was 4%; in assay [5], 3%; in assay [6] it was 1.3%. In addition, the inhibition in assay [7] is -0.3%; in assay [8], 3.3%; in assay [9], 3.7%; in [10], 4.7%; in [11], 2.3%; in assay [12], -3%. The inhibition in [13] was found to be 6.7%; in assay [14], 0.7%; in [15] it was 2%.

With `Cc1n[nH]c(C)c1-c1ccc2c(NC(=O)c3ccc(N4CCN(C)CC4)cc3)n[nH]c2c1`, the inhibition in assay [16] was 1.3%; in assay [17], 44.7%; in assay [18], -8.3%; in assay [19], 18.7%; in [20], 3%; in assay [21] it was 5%. Further, the inhibition was 6.3% in assay [22], 2.7% in assay [23], -1% in assay [24] and -1% in [25].

In the case of `COC(=O)Nc1noc2cc(-c3c(-c4ccccn4)n[nH]c3C)ccc12`, the inhibition was 3.3% in assay [26], 1.7% in assay [27], 1% in assay [28] and -0.7% in assay [29].
